In patent US10590123B2, “Pesticidally active amide heterocyclic derivatives with sulphur containing substituents” (SYNGENTA PARTICIPATIONS AG, priority 2014, dated 2020):

Legend:
[1] = test system: Spodoptera littoralis (Egyptian Cotton Leaf Worm); assay: Example B1: Activity against Spodoptera littoralis, sprayed cotton leaf discs; format: in vivo; conditions: foliar, 72 h, application rate 200 ppm, L1 larvae, 3 days after infestation, read-out: control in at least one of the three categories (mortality, anti-feedancy or growth inhibition)
Procedure: Example B1: Activity Against Spodoptera littoralis (Egyptian Cotton Leaf Worm)
Cotton leaf discs were placed on agar in 24-well microtiter plates and sprayed with aqueous test solutions prepared from 10′000 ppm DMSO stock solutions. After drying the leaf discs were infested with five L1 larvae. The samples were assessed for mortality, anti-feedant effect, and growth inhibition in comparison to untreated samples 3 days after infestation. Control of Spodoptera littoralis by a test sample is when at least one of mortality, anti-feedant effect, and growth inhibition is higher than the untreated sample.

[2] = test system: Spodoptera littoralis (Egyptian Cotton Leaf Worm); assay: Example B2: Activity against Spodoptera littoralis, systemic via lettuce roots in agar; format: in vivo; conditions: 144 h, application rate 12.5 ppm, 6 days after infestation, read-out: control in at least one of the three categories (mortality, anti-feedancy or growth inhibition)
Text: Example B2: Activity Against Spodoptera littoralis (Egyptian Cotton Leaf Worm)
Test compounds were applied by pipette from 10′000 ppm DMSO stock solutions into 24-well plates and mixed with agar. Lettuce seeds were placed on the agar and the multi well plate was closed by another plate which contains also agar. After 7 days the roots have absorbed the compound and the lettuce has grown into the lid plate. The lettuce leafs were now cut off into the lid plate. Spodoptera eggs were pipetted through a plastic stencil on a humid gel blotting paper and the plate closed with it.
The samples were assessed for mortality, anti-feedant effect and growth inhibition in comparison to untreated samples 6 days after infestation.

[3] = test system: Plutella xylostella (Diamond Back Moth); assay: Example B3: Activity against Plutella xylostella, artificial diet; format: in vivo; conditions: 120 h, application rate 200 ppm, L2 larvae, 5 days after infestation, read-out: effect in at least one of the two categories (mortality or growth inhibition)
Procedure: Example B3: Activity Against Plutella xylostella (Diamond Back Moth)
(§1) 24-well microtiter plates with artificial diet were treated with aqueous test solutions prepared from 10′000 ppm DMSO stock solutions by pipetting. After drying, the plates were infested with L2 larvae (10 to 15 per well). The samples were assessed for mortality and growth inhibition in comparison to untreated samples 5 days after infestation.

[4] = test system: Diabrotica Balteata (Corn Root Worm); assay: Example B4: Activity against Diabrotica balteata, sprayed maize sprouts; format: in vivo; conditions: 96 h, application rate 200 ppm, L2 larvae, 4 days after infestation, read-out: effect in at least one of the two categories (mortality or growth inhibition)
Procedure: Example B4: Activity Against Diabrotica Balteata (Corn Root Worm)
as §1, with “Maize sprouts, placed on an agar layer in 24-well” for “24-well”, “plates” for “plates with artificial diet”, “spraying.” for “pipetting.”, “(6” for “(10”, “10” for “15”, “4” for “5”

[5] = test system: Frankliniella occidentalis (Western Flower Thrips); assay: Example B5: Activity against Frankliniella occidentalis, sprayed sunflower leaf discs; format: in vivo; conditions: foliar, 168 h, application rate 200 ppm, population of mixed ages, 7 days after infestation
Procedure: Example B5: Activity Against Frankliniella occidentalis (Western Flower Thrips)
Sunflower leaf discs were placed on agar in 24-well microtiter plates and sprayed with aqueous test solutions prepared from 10′000 ppm DMSO stock solutions. After drying the leaf discs were infested with a Frankliniella population of mixed ages. The samples were assessed for mortality 7 days after infestation.

[6] = test system: Bemisia tabaci (Cotton White Fly); assay: Example B6: Activity against Bemisia tabaci, sprayed cotton leaf discs; format: in vivo; conditions: foliar, 144 h, application rate 200 ppm, adult white flies, 6 days after incubation
Procedure: Example B6: Activity Against Bemisia tabaci (Cotton White Fly)
Cotton leaf discs were placed on agar in 24-well microtiter plates and sprayed with aqueous test solutions prepared from 10′000 ppm DMSO stock solutions. After drying the leaf discs were infested with adult white flies. The samples were checked for mortality 6 days after incubation.

[7] = test system: Euschistus heros (Neotropical Brown Stink Bug); assay: Example B7: Activity against Euschistus heros, sprayed soybean leaf; format: in vivo; conditions: 120 h, application rate 200 ppm, N-2 nymphs, 5 days after infestation
Procedure: Example B7: Activity Against Euschistus heros (Neotropical Brown Stink Bug)
Soybean leaf on agar in 24-well microtiter plates were sprayed with aqueous test solutions prepared from 10′000 ppm DMSO stock solutions. After drying the leaf were infested with N-2 nymphs. The samples were assessed for mortality 5 days after infestation.

[8] = test system: Myzus persicae (Green Peach Aphid); assay: Example B8: Activity against Myzus persicae, sprayed sunflower leaf discs; format: in vivo; conditions: foliar, 144 h, application rate 200 ppm, aphid population of mixed ages, 6 days after infestation
Procedure: Example B8: Activity Against Myzus persicae (Green Peach Aphid)
Sunflower leaf discs were placed on agar in a 24-well microtiter plate and sprayed with aqueous test solutions prepared from 10′000 ppm DMSO stock solutions. After drying, the leaf discs were infested with an aphid population of mixed ages. The samples were assessed for mortality 6 days after infestation.

| melting point [°C] | SMILES | percent control (mortality, anti-feedant effect or growth inhibition) at 200 ppm [1] [%] | percent control (mortality, anti-feedant effect or growth inhibition) at 12.5 ppm [2] [%] | percent effect (mortality or growth inhibition) at 200 ppm [3] [%] | percent effect (mortality or growth inhibition) at 200 ppm [4] [%] | mortality at 200 ppm [5] [%] | mortality at 200 ppm [6] [%] | mortality at 200 ppm [7] [%] | mortality at 200 ppm [8] [%] |
| --- | --- | --- | --- | --- | --- | --- | --- | --- | --- |
| 184 to 187 | CCSc1cc(-c2ccc(Cl)cc2)cnc1C(=O)Nc1nnc(C(F)(F)C(F)(F)F)s1 |  |  |  |  |  |  |  |  |
| 242 to 244 | CCS(=O)(=O)c1cc(-c2cc(F)cc(F)c2)cnc1C(=O)Nc1nnc(C(F)(F)C(F)(F)F)s1 |  |  |  |  |  |  |  |  |
| 159 to 161 | CCS(=O)(=O)c1cc(-c2cc(F)cc(F)c2)cnc1C(=O)N(C)c1nnc(C(F)(F)C(F)(F)F)s1 |  |  |  |  |  |  |  |  |
| 174 to 176 | CCS(=O)(=O)c1cc(-c2ccc(C(F)(F)F)cc2)ccc1C(=O)N(C)c1nnc(C(F)(F)F)s1 |  |  |  |  |  |  |  |  |
| 213 to 215 | CCS(=O)(=O)c1cc(-c2cccc(Cl)c2)cnc1C(=O)N(C)c1nnc(C(F)(F)F)s1 |  |  |  |  |  |  |  |  |
| 254 to 256 | CCSc1cc(-c2ccc(C(F)(F)F)cc2)cnc1C(=O)Nc1nnc(C(F)(F)C(F)(F)F)s1 |  |  |  |  |  |  |  |  |
|  | CCS(=O)(=O)c1cc(-c2ccc(Cl)cc2)cnc1C(=O)N(C)c1nnc(C(F)(F)F)s1 [Compound P2, 5-(4-chlorophenyl)-3-ethylsulfonyl-N-methyl-N-[5-(trifluoromethyl)-1,3,4-thiadiazol-2-yl]pyridine-2-carboxamide] | ≥ 80 | ≥ 80 | ≥ 80 | ≥ 80 | ≥ 80 | ≥ 80 |  |  |
|  | CCS(=O)(=O)c1cc(-c2ccc(C(F)(F)F)cc2)cnc1C(=O)N(C)c1nnc(C(F)(F)F)s1 [Compound P4] | ≥ 80 |  | ≥ 80 | ≥ 80 |  | ≥ 80 | ≥ 80 |  |
|  | CCS(=O)(=O)c1cc(-c2ccc(F)cc2F)cnc1C(=O)N(C)c1nnc(C(F)(F)F)s1 [Compound P25] | ≥ 80 | ≥ 80 | ≥ 80 | ≥ 80 |  | ≥ 80 | ≥ 80 | ≥ 80 |
|  | CCS(=O)(=O)c1cc(-c2ccc(C#N)cc2)cnc1C(=O)N(C)c1nnc(C(F)(F)F)s1 [Compound P28] | ≥ 80 | ≥ 80 | ≥ 80 | ≥ 80 |  | ≥ 80 | ≥ 80 | ≥ 80 |
|  | CCS(=O)(=O)c1cc(-c2cccc(SC)c2)cnc1C(=O)N(C)c1nnc(C(F)(F)F)s1 [Compound P30] | ≥ 80 |  | ≥ 80 | ≥ 80 |  | ≥ 80 | ≥ 80 | ≥ 80 |
|  | CCS(=O)(=O)c1cc(-c2ccc(F)cc2)cnc1C(=O)N(C)c1nnc(C(F)(F)F)s1 [Compound P32] | ≥ 80 | ≥ 80 | ≥ 80 | ≥ 80 | ≥ 80 | ≥ 80 | ≥ 80 | ≥ 80 |
|  | CCS(=O)(=O)c1cc(-c2cc(F)cc(F)c2)cnc1C(=O)N(C)c1nnc(C(F)(F)F)s1 [Compound P35] | ≥ 80 | ≥ 80 | ≥ 80 | ≥ 80 |  | ≥ 80 | ≥ 80 | ≥ 80 |
|  | CCS(=O)(=O)c1cc(-c2cccc(C(F)(F)F)c2)cnc1C(=O)N(C)c1nnc(C(F)(F)F)s1 [Compound P37] | ≥ 80 |  | ≥ 80 | ≥ 80 |  | ≥ 80 | ≥ 80 |  |
|  | CCS(=O)(=O)c1cc(-c2nccc(C(F)(F)F)n2)cnc1C(=O)N(C)c1nnc(C(F)(F)F)s1 [Compound P41] | ≥ 80 | ≥ 80 | ≥ 80 | ≥ 80 |  | ≥ 80 | ≥ 80 | ≥ 80 |
|  | CCS(=O)(=O)c1cc(-c2ncccn2)cnc1C(=O)N(C)c1nnc(C(F)(F)F)s1 [Compound P43] | ≥ 80 | ≥ 80 | ≥ 80 | ≥ 80 |  |  | ≥ 80 | ≥ 80 |
|  | CCS(=O)(=O)c1cc(-c2ncc(F)cc2F)cnc1C(=O)N(C)c1nnc(C(F)(F)F)s1 [Compound P44] | ≥ 80 | ≥ 80 | ≥ 80 | ≥ 80 |  | ≥ 80 | ≥ 80 | ≥ 80 |
|  | CCS(=O)(=O)c1cc(-c2ncc(Cl)cc2Cl)cnc1C(=O)N(C)c1nnc(C(F)(F)F)s1 [Compound P47] | ≥ 80 | ≥ 80 | ≥ 80 | ≥ 80 |  | ≥ 80 | ≥ 80 | ≥ 80 |
|  | CCS(=O)(=O)c1cc(-c2ccc(Cl)cn2)cnc1C(=O)N(C)c1nnc(C(F)(F)F)s1 [Compound P52] | ≥ 80 | ≥ 80 | ≥ 80 | ≥ 80 | ≥ 80 | ≥ 80 | ≥ 80 | ≥ 80 |
|  | CCS(=O)(=O)c1cc(-c2ccccn2)cnc1C(=O)N(C)c1nnc(C(F)(F)F)s1 [Compound P54] | ≥ 80 | ≥ 80 | ≥ 80 | ≥ 80 |  |  | ≥ 80 | ≥ 80 |
|  | CCS(=O)(=O)c1cc(-c2ccnc(F)c2)cnc1C(=O)N(C)c1nnc(C(F)(F)F)s1 [Compound P56] | ≥ 80 | ≥ 80 | ≥ 80 | ≥ 80 |  | ≥ 80 | ≥ 80 | ≥ 80 |
